Where two headings read alike, the source gives them in different places. No end group written: not given here.
Experiments:
GSK-3β Ser9 = experiment: Immunoblot of phosphorylated GSK-3β in WT-CST perfused hearts; parameters: species or system rat; settings: 110 nM
Protocol: Cardiac signaling—Hearts were perfused with or without 110 nM WT-Cts as before. At the end of experiment hearts were snap frozen under liquid nitrogen and homogenized with 1 ml of ice cold 0.2 M sucrose, Tris maleate (pH 7.0) buffer supplemented with 2 mM EDTA, pH 8.0, 1 mM sodium orthovanadate, 10 mM sodium pyrophosphate, 1 mM phenylmethylsulfonyl fluoride, 10 μg/ml leupeptin, 10 μg/ml aprotinin and 0.1 mM 3-isobutyl-1-methylxanthine. SR membrane fractions were isolated from cytosolic proteins as described before (27). Protein content was determined by Bradford assay (BIO-RAD) and 100 μg of cytosolic protein was subjected to SDS-PAGE immunoblot analysis for phosphorylated-ERK, total ERK (P-ERK and T-ERK; Santa Cruz, Calif.). […]
Statistics—Data are expressed as the mean±SEM. Curve fitting was accomplished in the program Kaleidagraph (Synergy Software, Reading, Pa.). […] For analysis of phosphorylated proteins, levels were quantified using Bio-Rad QuantifyOne and volumes of phosphorylated proteins were divided by the levels of non-phosphorylated proteins to calculate fold activation. Stimulation of protein activity was expressed as fold increase over vehicle-treated control. The means and S.E.M. were calculated for each treatment. […]

sympathochromaffin cells = settings: in vitro, cited from earlier work
[1] = system: WT and Chga knockout (KO) mice; experiment: Response to PE or SNP and baroreflex sensitivity in unconscious mice; assay type: in vivo; settings: KO mice, CST 40 μg/g bw iv
Protocol: Unconscious mice. Surgical procedures for hemodynamic measurements: Hemodynamic evaluation in both WT and KO mice was performed under general anesthesia [ketamine (100 mg/kg) and xylazine (2.5 mg/kg)] while connected to a ventilator. LV pressure was monitored by Millar micromanometer catheter of size 1.4 French (0.46 mm; Millar Instruments, Houston, Tex.); it was inserted into the LV where phasic and mean pressure was continuously monitored (Gould, Cleveland, Ohio). A venous catheter (MicroRenathane tube MRE-033; Braintree Laboratories, Braintree, Mass.) is implanted on right femoral vein for injection of peptide and other reagents. All physiologic signals were acquired by WINDAQ (Dataq Instruments, Akron, Ohio) and analyzed by BP-Analysis software (developed for own laboratory).
Assessment of baroreflex sensitivity (BRS): BRS (in milliseconds per mmHg) was assessed by both high-pressure [phenylephrine (PE) bolus] and low-pressure [sodium nitroprusside (SNP) bolus] stimuli in unconscious mice. Although conscious animals provide optimal physiological data, a host of undesirable signals are triggered by physical activities, and sleep cycle alterations in behavioral state. Therefore, we have chosen to conduct the experiments in unconscious mice to avoid some of the pitfalls encountered in awake animals. The absolute changes of HR in response to changes in SBP induced by PE or SNP were subjected to linear regression analysis to determine BRS. To test the effect of CST on BRS in KO mice, CST was injected (40 μg/g bw iv) 30 min before the injection of PE or SNP through the catheter implanted into the femoral vein.
BRS to high-pressure stimulus. High pressure BRS was evaluated by recording diminution of HR in response to PE-induced hypertension. Changes in SBP and HR were recorded continuously for 0.5 min after a bolus injection of PE (0.005 μg/g bw iv). This dose was selected from a preliminary dose-response study (0.001-0.05 μg/g bw iv).
BRS to low-pressure stimulus. This was evaluated by recording increments in HR in response to SNP-induced fall in BP. Changes in SBP and HR were recorded continuously for 0.5 min after a bolus injection of SNP (0.05 μg/g bw iv). This dose was selected from a preliminary dose-response study (0.01-0.1 μg/g bw iv).

[2] = system: Langendorff perfused rat heart; experiment: WT-CST inotropism/lusitropism in presence of adrenergic, cholinergic, Gi/o and NO-pathway inhibitors (Langendorff heart); settings: for Negative inotropism with muscarinic receptor antagonist: WT-CST 110 nM + Atropine 10 nM; for Negative inotropism with β-adrenoceptor antagonist: WT-CST 110 nM + Nadolol 10 nM; for Negative inotropism with α-adrenoceptor antagonist: WT-CST 110 nM + Phentolamine 100 nM; for Negative inotropism with Gi/o protein inhibition: WT-CST 110 nM after PTx 0.01 nM; for LVP change: preliminary experiments
Protocol: Adrenergic and cholinergic receptors involvement—To obtain information on the involvement of β1/β2, α-adrenergic receptors (ARs) and cholinergic receptors (AchR) on the inotropic and lusitropic effects induced by WT-Cts, cardiac preparations, stabilized for 20 min with KHs, were perfused with Nadolol (10 nM) or Phentolamine (100 nM) or Atropine (10 nM) for 10 min and then washed-out with KHs. After returning to control conditions, each heart was perfused with KHs containing a single concentration of Cts WT (110 nM) plus Nadolol (10 nM) or Phentolamine (100 nM) or Atropine (10 nM) for an additional 10 min.
Involvement of inhibitory G-protein (Gi/o)—To evaluate the involvement of inhibitory G-proteins in the cardiac action of WT-Cts, hearts were preincubated for 60 min with KHs enriched with pertussis toxin (PTx: 0.01 nM) and then exposed for 10 min to WT-Cts (110 nM). PTx catalyzes ADP-ribosylation of Gi/o alpha-subunit, uncoupling Gi-membrane receptor interaction.
NO-pathway inhibitor stimulated preparations—Hearts were stabilized for 20 min with KHs, perfused with 110 nM WT-Cts for 10 min and then the peptide was washed-out with KHs. After returning to control conditions, each heart was perfused with KHs containing either the NO scavenger PTIO, the non-specific NOS inhibitor L-NMMA, a soluble guanylate cyclase inhibitor (ODQ) or a protein kinase G blocker (KT5823). Subsequently, the hearts were exposed to the specific signaling inhibitor plus 110 nM of WT-Cts.

[3] = system: Langendorff perfused rat heart; experiment: Isoproterenol stimulated Langendorff heart preparations; settings: ISO 0.1 nM to 1 μM; WT-CST 33 and 110 nM, G364S-CST 200 nM, P370L-CST 165 nM

SSMKLSFRARAYGFRGPGPQL [WT-CST, catestatin]
Phosphorylation of GSK-3β at Ser9 (GSK-3β Ser9): inhibited | Rank order of potency, inhibition of catecholamine secretion (sympathochromaffin cells; listed as wild-type (WT)): Pro370Leu>wild-type (WT)>Gly364Ser>Arg374Gln | Rank order of potency, inhibition of catecholamine secretion (sympathochromaffin cells; listed as wildtype (WT)): Pro370Leu>wildtype (WT)>Gly364Ser>Arg374Gln | Dampened baroreflex slope [1]: restored | Negative inotropism with muscarinic receptor antagonist [2]: remained unaffected | Negative inotropism with muscarinic receptor antagonist ([2]; listed as WT-Cts): Unchanged | CST-induced changes in cardiac performance with PKG inhibition by KT5823 ([2]; WT-CST 110 nM + KT5823 0.1 μM): failed to affect | Negative inotropism and lusitropism with NOS inhibition by L-NMMA ([2]; WT-CST 110 nM + L-NMMA 10 μM): abolished | Negative inotropism with β-adrenoceptor antagonist [2]: abolished | Negative inotropism with β-adrenoceptor antagonist ([2]; listed as WT-Cts): Abolished | Negative inotropism and lusitropism with sGC blockade by ODQ ([2]; WT-CST 110 nM + ODQ 10 μM): abolished | Negative inotropism and lusitropism with NO removal by PTIO ([2]; WT-CST 110 nM + PTIO 10 μM): abolished | Negative inotropism with α-adrenoceptor antagonist [2]: reduced | Negative inotropism with α-adrenoceptor antagonist ([2]; listed as WT-Cts): Reduced | Negative inotropism with Gi/o protein inhibition [2]: abolished | Negative inotropism with Gi/o protein inhibition ([2]; listed as WT-Cts): Abolished | Negative inotropism with eNOS-NO-cGMP-PKG pathway inhibition ([2]; WT-CST 110 nM, Table 1): Abolished | LVP change ([2]; WT-Cts + L-NIO (eNOS selective inhibitor)): 5.04±1.69 | LVP change ([2]; WT-Cts + Vinyl-L-NIO (nNOS selective inhibitor)): −13.14±2.25 | LVP change ([2]; WT-Cts alone): −18.19±2.27 | ISO-induced stimulation of LVP (concentration-response) [3]: significantly inhibited

From patent US20110166066A1, “CATESTATIN (CST) AND ITS VARIANTS FOR TREATMENT OF CARDIOVASCULAR AND METABOLIC DISORDERS” (priority 2008, published 2011)
